Source: patent US10098897B2, “Methods and materials for reducing development of stenosis of arteriovenous fistulas” (Mayo Foundation for Medical Education and Research, priority 2014, dated 2018)

Tested on: Iex-1
Experiment: Iex-1 gene expression by qRT-PCR in hypoxic NIH 3T3 fibroblasts
Assay type: cell-based, mouse
Text: To determine the expression of Iex-1 and Vegf-A in vitro, NIH 3T3 cells (ATCC, Manassas, Va.) were used and subjected to hypoxia and normoxia for different lengths of time as described elsewhere (Yang et al., Kidney Int., 85:289-306 (2014) and Janardhanan et al., Kidney Int., 84:338-52 (2013)). Cells were harvested for qRT-PCR analysis.
Cells or tissue were stored in a RNA stabilizing/cell lysis solution (Qiagen, Gaithersburg, Md.) (Yang et al., Kidney Int., 85:289-306 (2014) and Janardhanan et al., Kidney Int., 84:338-52 (2013)). Specimens were homogenized, and total RNA was extracted and isolated via the miRNEasy Mini kit (Qiagen). Culture cells were trypsinized and stored in Qiazol lysis regent and processed using the RNEasy Mini kit.
Gene expression was quantified using qRT-PCR as described elsewhere (Yang et al., Kidney Int., 85:289-306 (2014) and Janardhanan et al., Kidney Int., 84:338-52 (2013)).

In the case of `C=C1/C(=C\C=C2/CCC[C@]3(C)[C@@H]([C@H](C)CCCC(C)(C)O)CC[C@@H]23)C[C@@H](O)C[C@@H]1O` [calcitriol], the “average decrease in Iex-1 expression vs. controls” value (1 μM calcitriol, hypoxic fibroblasts, 24 hours, control PBS alone) is reported as 56%, the “average Iex-1 expression (qRT-PCR)” value (1 μM calcitriol, hypoxic fibroblasts, 24 hours, control 8.62+1.52) is reported as 3.84+2.2 and the “optimal dose of calcitriol required to reduce Iex-1 expression” value (determined using a dose response curve) is reported as 1 µM.
